Laboratory results from US5358946A, “Heterocycle-substituted amides, carbamates and ureas as agents for the treatment of atherosclerosis” (The Du Pont Merck Pharmaceutical Company, priority 1992, dated 1994).

Key:
[1] = target: T1, acyl-CoA: cholesterol acyltransferase (ACAT) (Rattus norvegicus, UniProt Q7TQM4); assay: Inhibition of Acyl-CoA: Cholesterol Acyltransferase (ACAT) in hepatic microsomes (in vitro hepatic ACAT activity); format: biochemical, rat (male Sprague Dawley); conditions: 14C-oleoyl-CoA, 15 min preincubation at 37° C., pH 7.4, read-out: Inhibition of Cholesterol Esterification (IC50)
T1 construct: Microsomes were obtained by differential centrifugation; from tissue; host or cells: liver microsomes of male Sprague Dawley rats
T1 sequence (Q7TQM4 1-524): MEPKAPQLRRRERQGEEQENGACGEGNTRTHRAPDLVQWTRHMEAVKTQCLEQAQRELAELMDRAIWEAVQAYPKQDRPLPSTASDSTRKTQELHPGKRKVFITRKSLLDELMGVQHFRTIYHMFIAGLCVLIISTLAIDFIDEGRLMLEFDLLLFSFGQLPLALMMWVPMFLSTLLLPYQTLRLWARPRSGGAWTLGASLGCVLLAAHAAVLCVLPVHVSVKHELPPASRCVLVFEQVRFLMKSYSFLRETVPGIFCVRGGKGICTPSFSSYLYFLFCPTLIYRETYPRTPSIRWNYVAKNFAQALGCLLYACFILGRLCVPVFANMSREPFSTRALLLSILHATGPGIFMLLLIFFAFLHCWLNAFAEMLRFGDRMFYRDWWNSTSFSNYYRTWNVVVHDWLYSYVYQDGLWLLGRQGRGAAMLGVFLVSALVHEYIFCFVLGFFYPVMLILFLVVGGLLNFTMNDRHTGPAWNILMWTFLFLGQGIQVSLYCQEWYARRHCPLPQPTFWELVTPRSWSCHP
Experimental: The ability of the compounds to inhibit ACAT, the enzyme responsible for the intracellular synthesis of cholesteryl esters, was tested as follows. Male Sprague Dawley rats weighing 150-300 g, were fed rat chow ad libitum. The animals were fasted for twenty-four hours prior to being sacrificed by decapitation. The livers were perfused in situ with 50 ml of cold 0.25M sucrose, excised, and homogenized in three volumes of 0.1M phosphate buffer, pH 7.4, that contained 0.5 mM EDTA (ethylenediaminetetraacetic acid), 1.0 mM glutathione, 0.25M sucrose and […]. Microsomes were obtained by differential centrifugation; the supernatant from an initial spin at 15,000×g for 15 minutes was centrifuged at 105,000×g for 1 hour to pellet the microsomes. The microsomes were suspended in homogenization buffer, reisolated by centrifugation, and stored at -70° C. Microsomes were used within one month of preparation.
The control assay in a final volume of 200 μl consisted of 200 μg of microsomal protein, 75μ<^14 C-oleoyl-CoA (10,000 dpm/nmol) in 0.1M phosphate, pH 7.4, that contained 1 mM glutathione. Compounds were added in 5 μl of DMSO (dimethyl sulfoxide) and additional controls were run with DMSO only. All components, except the oleoyl-CoA, were preincubated for 15 min. at 37° C. prior to the initiation of the reaction by the addition of oleoyl-CoA. The assay was terminated after 10 min. by the addition of 4 ml of chloroform:methanol (2:1, v/v). 20,000 dpm of 3H-choledsteryl oleate and 10 μg of unlabeled cholesteryl oleate and oleic acid were added as an internal standard and carriers, respectively. After allowing 10 min. for lipid extraction, 0.8 ml of deionized water was added to separte the solution into two phases. The lower chloroform phase was collected, dried under nitrogen and resuspended in 2 ml of hexane:diethyl ether (97:3 v/v). The lipids were then loaded onto BAKERSBOND spe* silica gel columns. Extracts were collected in scintillation vials and counted for radioactivity. The specific activity of ACAT in the control incubation averaged 260 pmol/min/mg microsomal protein.

[2] = target: T2, ACAT (Mus musculus, UniProt Q61263); assay: Inhibition of cholesterol esterification in the murine macrophage-like cell line J774.A1; format: cell-based; conditions: J774.A1 cells, ac-LDL loaded, 14C-oleic acid pulse
T2 construct: endogenous in cells; host or cells: J774.A1 (murine macrophage-like)
T2 sequence (Q61263 1-540): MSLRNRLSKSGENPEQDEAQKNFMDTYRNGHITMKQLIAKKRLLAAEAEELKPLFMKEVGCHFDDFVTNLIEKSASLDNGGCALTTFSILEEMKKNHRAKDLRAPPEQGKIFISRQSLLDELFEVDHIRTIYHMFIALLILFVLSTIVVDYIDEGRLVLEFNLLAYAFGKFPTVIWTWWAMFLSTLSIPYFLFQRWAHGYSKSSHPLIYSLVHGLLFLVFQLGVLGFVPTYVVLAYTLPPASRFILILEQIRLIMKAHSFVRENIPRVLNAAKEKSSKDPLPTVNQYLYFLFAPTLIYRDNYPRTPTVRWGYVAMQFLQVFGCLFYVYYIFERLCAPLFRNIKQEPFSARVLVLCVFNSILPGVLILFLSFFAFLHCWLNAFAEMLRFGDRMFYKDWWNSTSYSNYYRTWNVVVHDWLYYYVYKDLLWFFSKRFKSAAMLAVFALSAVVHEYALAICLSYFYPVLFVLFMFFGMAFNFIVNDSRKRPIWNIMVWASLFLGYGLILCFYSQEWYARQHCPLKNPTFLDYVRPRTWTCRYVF
Experimental: The esterification of cholesterol was determined in the murine macrophage-like cell line J774.A1. Cells were seeded in 35 mm wells at a density of 300,000 cells per well in 2 mls of Dulbecco's Eagle Medium (DMEM) supplemented with 10% fetal bovine serum (FBS). Cells were incubated at 37° C. in an atmosphere of 5% CO2 and 93% humidity. After […] the media was changed to 0.68 mls 10% FBS-DMEM containing 34 μg of acetylated human low density lipoprotein (ac-LDL) to increase the intracellular concentration of cholesterol and promote esterification. At 41 hours, various inhibitors were added to the cells in DMSO (10 μl/ml maximum). At 43 hours, the cells were pulsed with 0.1 mM ^14 C-oleic acid (10,000 dpm/nmol) complexed with BSA (bovine serum albumin) to follow cholesterol ester formation. The experiment was terminated at 45 hours by washing the monolayers 3 times with 3 ml of Tris-buffered saline at 4° C. The lipids were extracted by incubating the monolayers with 1.5 ml of hexane: isopropanol (3:2, v/v) for 30 min. under gentle agitation. During this period, 10,000 dpm ^3 H-cholesterol oleate and 10 μg of unlabeled cholesteryl oleate, oleic acid, triolein and cholesterol were added as an […] standard and carriers. The organic solvent was removed and the cells were washed with an additional 1.0 ml of hexane: isopropanol which was combined with the original extract. The cells were allowed to dry overnight, digested with 2.0 ml of 0.2N sodium hydroxide for 1 hour and an aliquot of the solubilized protein used for protein determination using the Lowry method. […] Extracts were collected in scintillation vials to determine the amount of radioactivity. The conversion of oleic acid to cholesteryl ester in the control averaged 0.54 mmol/hour/mg protein and was increased upon the addition of ac-LDL to about 10.689±0.69 mmol/hour/mg protein.

O=C(Nc1ccc(F)cc1F)N(CCCCCSc1nc(-c2ccccc2)c(-c2ccccc2)[nH]1)CCN1CCOCC1 [Example 161, N'-(2,4-difluorophenyl)-N-[5-(4,5-diphenyl-1H-imidazol-2-ylthio)pentyl]-N-[2-(4-morpholinyl)ethyl]-urea]
IC50 [1]: 66 nM
IC50 [2]: 880 nM
